In paper PMC6956158, “In Vitro and In Vivo Assessment of Metabolic Drug Interaction Potential of Dutasteride with Ketoconazole” (Pharmaceutics, 2019):

Key:
[1] = cited from earlier work
[2] = NADPH-dependent metabolism (disappearance) of DUT in human liver microsomes; assay type: in vitro ADME; details: HLM
Method: (§1) In vitro metabolism studies in RLM and HLM were conducted as previously reported with slight modifications. To investigate the NADPH-dependent metabolism (via phase I enzymes including CYPs) of DUT in RLM and HLM, the disappearance of DUT at various concentrations ranging from 1 to 100 μM in the presence of NADPH was determined in RLM and HLM. The substrate (DUT) concentration ([S]; μM) versus the initial metabolic rate (V; pmol/min/mg protein) data were interpreted based on the Michaelis–Menten kinetics, and relevant parameters were estimated by nonlinear regression analysis (GraphPad Prism ver. 5.01; GraphPad Software, San Diego, CA, USA) based on the following Michaelis–Menten equation: V = Vmax × [S]/Km + [S] where Vmax and Km are the maximal metabolic rate and Michaelis–Menten constant, respectively. The intrinsic metabolic clearance (CLint) was calculated by dividing Vmax by Km. The unbound Km (Km,u) was calculated as the Km multiplied by the unbound fraction in microsomes (fu,mic). The unbound CLint (CLint,u) was calculated as the CLint divided by the fu,mic.
(§2) To investigate the metabolic interaction potential between DUT and KET, the disappearance of DUT (5 μM) in RLM and HLM was determined under the absence and presence of KET at various concentrations ranging from 1 to 5000 nM. A microsomal reaction mixture was prepared as follows (total volume: 0.2 mL): 1 mM NADPH, 10 mM MgCl2, substrate (DUT), and inhibitor (KET), RLM or HLM (1 mg/mL), and 50 mM phosphate buffer. […] The unbound fractions of DUT in rat plasma, RLM, human plasma, and HLM were measured using a rapid equilibrium dialysis (RED) device (Thermo Fisher Scientific, Inc., Waltham, MA, USA) as described in a previous study. […] The fraction unbound was calculated as the ratio of the drug concentrations in the “buffer” chamber to those in the “sample” chamber. The blood-to-plasma concentration ratio (RB) of DUT was determined as described previously. […] The concentrations of DUT in the plasma sample were determined by the validated HPLC analysis.

[3] = NADPH-dependent metabolism (disappearance) of DUT in rat liver microsomes; assay type: in vitro ADME; details: RLM
Method: as §1, §2

[4] = Previous and preliminary rat studies of intravenous DUT; assay type: in vivo; details: rats, preliminary study
[5] = Unbound fraction by rapid equilibrium dialysis, rat plasma; assay type: in vitro ADME
Method: (§3) To investigate the metabolic interaction potential between DUT and KET, the disappearance of DUT (5 μM) in RLM and HLM was determined under the absence and presence of KET at various concentrations ranging from 1 to 5000 nM. A microsomal reaction mixture was prepared as follows (total volume: 0.2 mL): 1 mM NADPH, 10 mM MgCl2, substrate (DUT), and inhibitor (KET), RLM or HLM (1 mg/mL), and 50 mM phosphate buffer. At 0 and 90 min after starting the metabolic reaction, a 50 μL aliquot of microsomal incubation mixture was sampled and immediately transferred into a clean 1.5 mL microcentrifuge tube containing 100 μL cold ACN with an internal standard (celecoxib at 400 ng/mL) to stop the metabolic reaction. After vortex mixing and centrifugation at 15,000× g for 10 min, a 100 μL aliquot of the supernatant was stored at −80 °C. The unbound fractions of DUT in rat plasma, RLM, human plasma, and HLM were measured using a rapid equilibrium dialysis (RED) device (Thermo Fisher Scientific, Inc., Waltham, MA, USA) as described in a previous study. […] The fraction unbound was calculated as the ratio of the drug concentrations in the “buffer” chamber to those in the “sample” chamber. The blood-to-plasma concentration ratio (RB) of DUT was determined as described previously. […] The concentrations of DUT in the plasma sample were determined by the validated HPLC analysis.

[6] = Unbound fraction by rapid equilibrium dialysis, RLM; assay type: in vitro ADME, rat
Method: as §3

[7] = Blood-to-plasma concentration ratio (RB), blood distribution; assay type: in vitro ADME; details: rat, fresh rat blood, 37 °C
Method: as §3

[8] = Basic (simple static) model prediction of clinical DUT-KET interaction; set-up: species or system human; details: clinical prediction from HLM data, R = 1 + Imax,u / Ki
Method: Supplementary Materials: In Vitro and In Vivo
Assessment of Metabolic Drug Interaction Potential of Dutasteride with Ketoconazole
Table S1. Previous literatures on bioanalytical methods for DUT using HPLC system coupled with ultraviolet-visible (UV/Vis) and tandem mass (MS/MS) detector.
Detector Matrix Sample Sample Preparation Mobile Phase Conc. Range Validation Ref.
LC-MS/MS Human plasma 300 µL LLE Isocratic 0.1-25 ng/mL Full
LC-MS/MS Human plasma 500 µL LLE Gradient 0.1-25 ng/mL Full
LC-MS/MS Human plasma 500 µL SPE Gradient 1-100 ng/mL Full
LC-MS/MS Human plasma 500 µL SPE Isocratic 0.1-10 ng/mL Full
LC-MS/MS Human plasma 900 µL LLE Isocratic 0.5-50 ng/mL Full
LC-MS/MS Human plasma 1000 µL LLE Gradient 0.05-4 ng/mL Full
LC-MS/MS Human Serum 2000 µL LLE NR 0.025-2.5 ng/mL Partial
LC-MS/MS Human Urine 5000 µL SPE Gradient NR Partial
LC-MS/MS Rat plasma 100 µL LLE Isocratic 1-500 ng/mL Partial
LC-MS/MS Rat plasma 100 µL LLE Isocratic 5-400 ng/mL Partial
HPLC-UV Rat blood 100 µL Deproteinization Gradient NR Partial […]
where the R is the predicted ratio of the AUC of DUT in the presence and absence of KET, the Imax,u is the maximum unbound plasma concentration of KET, and the Ki is the unbound inhibition constant of KET determined in vitro. Since IC50 only was determined in this study, it was converted to Ki using the following equation for competitive inhibition. […]

Compound: C[C@]12C=CC(=O)N[C@@H]1CC[C@@H]1[C@@H]2CC[C@]2(C)[C@@H](C(=O)Nc3cc(C(F)(F)F)ccc3C(F)(F)F)CC[C@@H]12 [DUT, Dutasteride]
- steady-state serum DUT concentration, median ([1]; healthy humans, 0.5 mg DUT once-daily for more than 6 months): 38 ng/mL
- terminal half-life ([1]; humans, after reaching a steady state): approximately 5 weeks
- unchanged DUT excreted in the urine ([1]; humans): trace amounts
- Vmax ([2]; DUT 1 to 100 μM, NADPH): 47.7 ± 6.3 pmol/min/mg protein
- Km ([2]; human, human liver microsomes, DUT 1 to 100 μM, NADPH): 51.6 ± 7.3 µM
- microsomal CLint ([2]; human, human liver microsomes, Vmax divided by Km): 0.928 ± 0.069 µL/min/mg
- Vmax ([3]; DUT 1 to 100 μM, NADPH): 114 ± 10 pmol/min/mg protein
- microsomal CLint ([3]; Sprague-Dawley, rat, rat liver microsomes, Vmax divided by Km): 3.45 ± 0.37 µL/min/mg
- Km ([3]; rat, rat liver microsomes, DUT 1 to 100 μM, NADPH): 33.3 ± 3.6 µM
- renal excretion of DUT in the unchanged form [4]: less than 1 % of intravenously administered dose
- fraction of unbound DUT, presence versus absence of KET ([5]; DUT and KET 5 μM, n = 5): no significant differences
- fraction unbound at 5 μM ([5]; Sprague-Dawley, DUT 5 μM, RED device): 0.0115
- fraction of unbound DUT, presence versus absence of KET ([6]; RLM, DUT and KET 5 μM, n = 5): no significant differences
- fraction unbound at 5 μM ([6]; Sprague-Dawley, rat, rat liver microsomes, RLM 1 mg/mL, DUT 5 μM, RED device): 0.0856
- blood plasma ratio at 60 min, 5 μM ([7]; DUT 5 μM alone): 0.712 ± 0.026
- blood plasma ratio at 60 min, 5 μM ([7]; DUT 5 μM in the presence of KET 5 μM): 0.692 ± 0.036
- R, predicted ratio of the AUC of DUT in the presence and absence of KET [8]: 2.88
